# Results: article PMC8113468, “Sugar transporters enable a leaf beetle to accumulate plant defense compounds” (Nature Communications, 2021)
# What was measured:
# Assay type in all cases: cell-based
# [1] = target: T1, PaGTR1 (Phyllotreta armoraciae, UniProt A0A858Z6R5); experiment: uptake into PaGTR1-expressing Xenopus oocytes, LC-MS/MS; details: Kulori buffer with MES pH 6.0, 10 min, room temperature; proton-dependent import; read-out: apparent Km
# T1 construct: gene GTR1; full-length ORF without stop codon in pNB1u, C-terminal HA tag, cRNA expressed in Xenopus laevis oocytes
# [2] = target: T2, PaGTR3 (Phyllotreta armoraciae, UniProt A0A858Z6Y2); experiment: uptake into transfected High Five insect cells, LC-MS/MS; details: equimolar mixture of seven glucosinolates, 200 µM, PBS pH 5.5, 1 h, 27 °C
# T2 construct: gene GTR3; full-length ORF in pIEx-4, C-terminal 6xHis tag, expressed in High Five insect cells
# T2 sequence (A0A858Z6Y2 1-478): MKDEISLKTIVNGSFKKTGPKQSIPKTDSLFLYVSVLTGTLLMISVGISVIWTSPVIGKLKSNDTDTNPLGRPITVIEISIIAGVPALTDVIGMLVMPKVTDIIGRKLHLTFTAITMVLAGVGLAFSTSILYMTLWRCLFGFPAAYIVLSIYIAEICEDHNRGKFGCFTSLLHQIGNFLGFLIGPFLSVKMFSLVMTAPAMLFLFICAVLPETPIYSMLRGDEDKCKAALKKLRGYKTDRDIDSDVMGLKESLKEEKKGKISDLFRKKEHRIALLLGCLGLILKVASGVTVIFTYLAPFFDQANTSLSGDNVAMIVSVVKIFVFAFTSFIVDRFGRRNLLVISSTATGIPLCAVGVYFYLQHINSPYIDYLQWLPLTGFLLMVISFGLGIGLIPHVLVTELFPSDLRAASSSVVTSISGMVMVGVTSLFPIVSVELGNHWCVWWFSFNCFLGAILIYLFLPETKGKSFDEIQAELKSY
# [3] = target: T3, PaGTR2 (Phyllotreta armoraciae, UniProt A0A858Z6M7); experiment: as above; details: equimolar mixture of seven glucosinolates, 200 µM, PBS pH 5.5, 1 h, 27 °C
# T3 construct: gene GTR2; full-length ORF in pIEx-4, C-terminal 6xHis tag, expressed in High Five insect cells
# T3 sequence (A0A858Z6M7 1-504): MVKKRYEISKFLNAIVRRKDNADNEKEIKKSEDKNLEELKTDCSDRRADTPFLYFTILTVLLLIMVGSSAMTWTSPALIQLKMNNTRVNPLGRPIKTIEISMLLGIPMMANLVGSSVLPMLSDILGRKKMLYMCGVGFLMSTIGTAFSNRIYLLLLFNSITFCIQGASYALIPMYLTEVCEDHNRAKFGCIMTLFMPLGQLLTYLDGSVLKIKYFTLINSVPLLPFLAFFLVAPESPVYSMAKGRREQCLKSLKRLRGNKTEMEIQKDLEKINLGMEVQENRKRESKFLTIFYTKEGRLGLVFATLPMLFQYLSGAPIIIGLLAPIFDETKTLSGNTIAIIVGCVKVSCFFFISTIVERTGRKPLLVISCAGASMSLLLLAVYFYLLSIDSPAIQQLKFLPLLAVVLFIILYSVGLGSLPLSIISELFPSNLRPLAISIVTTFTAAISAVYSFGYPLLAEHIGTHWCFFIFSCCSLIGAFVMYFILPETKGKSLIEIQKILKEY
# T1 sequence (A0A858Z6R5 entry or part of it): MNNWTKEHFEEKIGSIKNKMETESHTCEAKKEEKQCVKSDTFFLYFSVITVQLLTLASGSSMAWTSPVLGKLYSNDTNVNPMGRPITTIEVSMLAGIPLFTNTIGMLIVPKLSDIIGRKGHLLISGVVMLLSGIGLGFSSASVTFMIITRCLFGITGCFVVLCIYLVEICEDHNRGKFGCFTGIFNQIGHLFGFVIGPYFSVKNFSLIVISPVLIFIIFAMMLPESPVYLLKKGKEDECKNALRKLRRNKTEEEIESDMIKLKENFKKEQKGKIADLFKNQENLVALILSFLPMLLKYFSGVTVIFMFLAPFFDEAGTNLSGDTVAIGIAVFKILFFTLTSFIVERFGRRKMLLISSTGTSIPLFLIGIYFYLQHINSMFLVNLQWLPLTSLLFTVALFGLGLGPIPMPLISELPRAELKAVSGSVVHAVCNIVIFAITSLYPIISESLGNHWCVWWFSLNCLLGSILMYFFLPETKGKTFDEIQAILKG
smiles,measurement,setting,value
O=S(=O)(O)O/N=C(/Cc1c[nH]c2ccccc12)S[C@@H]1O[C@H](CO)[C@@H](O)[C@H](O)[C@H]1O [I3M glucosinolate],Km,[1],50.6 ± 4.1 µM
same,"uptake into transfected High Five insect cells, LC-MS/MS",[2],PaGTR2 and PaGTR3 expression was analyzed because the recombinant transporters also used I3M glucosinolate
same,"uptake into transfected High Five insect cells, LC-MS/MS",[3],PaGTR2 and PaGTR3 expression was analyzed because the recombinant transporters also used I3M glucosinolate
